From ChEMBL document CHEMBL4808251, “Preparation, biological & cheminformatics-based assessment of N2,N4-diphenylpyrimidine-2,4-diamine as potential Kinase-targeted antimalarials” (Bioorg Med Chem, 2021) come the findings set out here.

Molecules are shown by their SMILES. Converted amounts (≈) assume the structure as drawn.

In general, IC50 refers to the midpoint of a concentration-inhibition curve. What is called inhibition is the change of the read-out against control, counted positive when it falls. The low end stands for little suppression, the high end for strong suppression. By logD is commonly meant lipophilicity at a set pH, counting ionised and neutral species. The solubility is how much of the substance goes into solution per volume. A high value points to much dissolved substance.

The subject of one series is HepG2. Kind of series: Cytotoxicity against human HepG2 cells assessed as inhibition of cell growth measured after 72 hrs by resazurin dye based fluorescence assay. Particulars: HepG2, 72 h.
Series [1] can be described thus: Selectivity index, ratio of IC50 for cytotoxicity against human HepG2 cells to IC50 for antimalarial activity against chloroquine-sensitive plasmodium falciparum 3D7 infected in human erythrocytes. Format: toxicity, cell-based. As to conditions: read-out: Ratio IC50.
A further series deals with Plasmodium falciparum. The series can be described thus: Antimalarial activity against chloroquine-sensitive plasmodium falciparum 3D7 infected in human erythrocytes assessed as parasite growth inhibition measured after 72 hrs by SYBR green dye based fluorescence analysis. It counts as functional, organism-based. As to conditions: 3D7, Erythrocyte.
The target of series [2] is T1, JAK3 (Tyrosine-protein kinase JAK3) (Homo sapiens, UniProt P52333).
T1 sequence (P52333 whole entry): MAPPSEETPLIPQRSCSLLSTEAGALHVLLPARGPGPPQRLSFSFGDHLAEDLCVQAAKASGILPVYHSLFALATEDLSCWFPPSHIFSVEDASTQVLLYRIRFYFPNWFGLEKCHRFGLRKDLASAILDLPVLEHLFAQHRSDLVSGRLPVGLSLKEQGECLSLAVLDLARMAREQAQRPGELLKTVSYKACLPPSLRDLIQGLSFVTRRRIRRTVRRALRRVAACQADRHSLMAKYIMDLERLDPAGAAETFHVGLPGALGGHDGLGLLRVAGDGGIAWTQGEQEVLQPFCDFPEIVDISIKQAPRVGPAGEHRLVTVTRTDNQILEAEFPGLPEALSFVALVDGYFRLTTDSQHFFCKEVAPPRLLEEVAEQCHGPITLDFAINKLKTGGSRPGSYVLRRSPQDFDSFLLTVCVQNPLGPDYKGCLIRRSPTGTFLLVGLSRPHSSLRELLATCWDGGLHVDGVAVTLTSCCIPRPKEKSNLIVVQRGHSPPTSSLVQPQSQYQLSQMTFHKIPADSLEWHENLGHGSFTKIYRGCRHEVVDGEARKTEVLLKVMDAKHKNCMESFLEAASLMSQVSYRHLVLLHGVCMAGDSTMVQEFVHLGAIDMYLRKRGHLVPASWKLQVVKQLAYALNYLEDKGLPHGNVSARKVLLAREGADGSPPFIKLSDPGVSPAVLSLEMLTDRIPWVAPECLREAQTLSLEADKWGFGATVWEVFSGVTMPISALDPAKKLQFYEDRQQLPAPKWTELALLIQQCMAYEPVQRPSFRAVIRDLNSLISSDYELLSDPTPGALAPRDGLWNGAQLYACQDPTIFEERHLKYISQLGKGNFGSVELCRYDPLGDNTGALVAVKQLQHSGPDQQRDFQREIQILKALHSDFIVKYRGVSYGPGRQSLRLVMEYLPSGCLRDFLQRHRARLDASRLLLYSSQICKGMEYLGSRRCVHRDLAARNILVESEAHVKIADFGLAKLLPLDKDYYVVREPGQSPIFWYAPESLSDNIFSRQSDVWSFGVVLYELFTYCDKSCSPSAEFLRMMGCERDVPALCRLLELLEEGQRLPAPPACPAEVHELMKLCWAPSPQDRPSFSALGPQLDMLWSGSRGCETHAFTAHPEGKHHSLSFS
Kind of series: Inhibition of human JAK3 at 1 uM measured after 30 mins by [gamma-33P]-ATP assay.

The target in series [3] is VEGFR1 (Vascular endothelial growth factor receptor 1) (Homo sapiens, UniProt P17948). Kind of series: Inhibition of human VEGFR1 at 1 uM measured after 30 mins by [gamma-33P]-ATP assay. As to conditions: human VEGFR1 kinase.
Chain of VEGFR1 (Vascular endothelial growth factor receptor 1) (P17948 whole entry): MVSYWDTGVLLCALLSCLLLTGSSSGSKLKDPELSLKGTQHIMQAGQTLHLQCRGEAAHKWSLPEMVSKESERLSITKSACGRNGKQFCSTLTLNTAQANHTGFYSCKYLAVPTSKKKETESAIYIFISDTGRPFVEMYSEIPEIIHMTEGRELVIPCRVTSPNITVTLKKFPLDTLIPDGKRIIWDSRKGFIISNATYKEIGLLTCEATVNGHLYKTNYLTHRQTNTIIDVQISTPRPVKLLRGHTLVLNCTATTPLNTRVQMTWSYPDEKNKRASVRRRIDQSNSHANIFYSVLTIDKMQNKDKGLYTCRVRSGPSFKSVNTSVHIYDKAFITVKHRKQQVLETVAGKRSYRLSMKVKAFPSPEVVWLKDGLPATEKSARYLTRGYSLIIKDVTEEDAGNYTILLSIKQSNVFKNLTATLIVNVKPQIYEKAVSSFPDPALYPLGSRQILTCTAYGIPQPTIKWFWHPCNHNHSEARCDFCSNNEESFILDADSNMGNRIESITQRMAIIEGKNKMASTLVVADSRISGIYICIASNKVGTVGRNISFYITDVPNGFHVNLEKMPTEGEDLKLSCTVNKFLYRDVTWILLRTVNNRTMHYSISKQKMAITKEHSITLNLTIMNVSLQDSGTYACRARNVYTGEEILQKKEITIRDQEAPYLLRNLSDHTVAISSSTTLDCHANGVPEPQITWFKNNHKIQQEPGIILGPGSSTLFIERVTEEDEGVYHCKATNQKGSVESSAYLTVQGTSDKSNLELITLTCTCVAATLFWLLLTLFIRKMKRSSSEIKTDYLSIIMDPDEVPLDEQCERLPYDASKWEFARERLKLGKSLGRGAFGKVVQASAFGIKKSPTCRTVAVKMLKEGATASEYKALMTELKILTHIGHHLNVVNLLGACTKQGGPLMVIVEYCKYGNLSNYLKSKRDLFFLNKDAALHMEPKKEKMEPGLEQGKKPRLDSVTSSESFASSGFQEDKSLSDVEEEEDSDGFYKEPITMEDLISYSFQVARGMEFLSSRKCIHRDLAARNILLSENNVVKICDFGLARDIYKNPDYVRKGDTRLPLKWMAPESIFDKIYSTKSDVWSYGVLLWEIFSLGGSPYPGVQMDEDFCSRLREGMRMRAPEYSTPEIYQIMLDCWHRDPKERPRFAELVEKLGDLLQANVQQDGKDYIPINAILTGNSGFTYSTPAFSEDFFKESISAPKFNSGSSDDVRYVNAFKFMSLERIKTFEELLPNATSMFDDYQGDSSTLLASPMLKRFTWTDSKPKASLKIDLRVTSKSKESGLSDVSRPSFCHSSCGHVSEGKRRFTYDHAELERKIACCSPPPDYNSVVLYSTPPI
In a further series the target is T2, Aurora kinase A (Homo sapiens, UniProt O14965).
T2 sequence (O14965 whole entry): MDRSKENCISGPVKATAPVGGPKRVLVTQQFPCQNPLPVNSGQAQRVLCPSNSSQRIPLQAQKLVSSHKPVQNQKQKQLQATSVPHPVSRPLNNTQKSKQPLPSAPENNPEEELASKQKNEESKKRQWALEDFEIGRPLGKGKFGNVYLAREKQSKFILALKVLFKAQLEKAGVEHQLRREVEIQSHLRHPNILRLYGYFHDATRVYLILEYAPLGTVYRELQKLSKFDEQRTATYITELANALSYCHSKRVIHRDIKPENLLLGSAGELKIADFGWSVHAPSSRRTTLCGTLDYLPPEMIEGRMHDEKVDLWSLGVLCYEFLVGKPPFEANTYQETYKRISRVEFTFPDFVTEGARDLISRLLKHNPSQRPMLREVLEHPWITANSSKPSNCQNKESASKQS
Kind of series: Inhibition of human Aurora A at 1 uM measured after 30 mins by [gamma-33P]-ATP assay.

Series [4] in a line: Intrinsic clearance in human liver microsomes at 0.5 uM in the presence of NADPH measured upto 30 mins by UPLC-MS/MS analysis. As to conditions: 0.5 h. Format: ADME, Microsome. (In general: Microsomes from liver hold many membrane-bound enzymes, among them those of drug oxidation.)
Series [5] in a line: Effective permeability of the compound in PBS at pH 7.4 at 10 uM incubated for 5 hrs by PAMPA based UPLC-MS/MS analysis. Format: ADME. Particulars: read-out: permeability. In general terms: The PAMPA barrier holds no transporters, so it reflects passive diffusion.
Series [6] is described as follows: 1-octanol/water partition coefficient, logD of the compound at pH 7.4 measured after 6 hrs by shake flask technique based HPLC-UV analysis. Format: physicochemical.
Series [7] deals with CDK2 (Cyclin-dependent kinase 2) (Homo sapiens, UniProt P24941). The series can be described thus: Inhibition of human CDK2 at 1 uM measured after 30 mins by [gamma-33P]-ATP assay.
Series [8] deals with HER4 (Receptor tyrosine-protein kinase erbB-4) (Homo sapiens, UniProt Q15303). The series can be described thus: Inhibition of human HER4 at 1 uM measured after 30 mins by [gamma-33P]-ATP assay.
Chain of HER4 (Receptor tyrosine-protein kinase erbB-4) (Q15303 whole entry): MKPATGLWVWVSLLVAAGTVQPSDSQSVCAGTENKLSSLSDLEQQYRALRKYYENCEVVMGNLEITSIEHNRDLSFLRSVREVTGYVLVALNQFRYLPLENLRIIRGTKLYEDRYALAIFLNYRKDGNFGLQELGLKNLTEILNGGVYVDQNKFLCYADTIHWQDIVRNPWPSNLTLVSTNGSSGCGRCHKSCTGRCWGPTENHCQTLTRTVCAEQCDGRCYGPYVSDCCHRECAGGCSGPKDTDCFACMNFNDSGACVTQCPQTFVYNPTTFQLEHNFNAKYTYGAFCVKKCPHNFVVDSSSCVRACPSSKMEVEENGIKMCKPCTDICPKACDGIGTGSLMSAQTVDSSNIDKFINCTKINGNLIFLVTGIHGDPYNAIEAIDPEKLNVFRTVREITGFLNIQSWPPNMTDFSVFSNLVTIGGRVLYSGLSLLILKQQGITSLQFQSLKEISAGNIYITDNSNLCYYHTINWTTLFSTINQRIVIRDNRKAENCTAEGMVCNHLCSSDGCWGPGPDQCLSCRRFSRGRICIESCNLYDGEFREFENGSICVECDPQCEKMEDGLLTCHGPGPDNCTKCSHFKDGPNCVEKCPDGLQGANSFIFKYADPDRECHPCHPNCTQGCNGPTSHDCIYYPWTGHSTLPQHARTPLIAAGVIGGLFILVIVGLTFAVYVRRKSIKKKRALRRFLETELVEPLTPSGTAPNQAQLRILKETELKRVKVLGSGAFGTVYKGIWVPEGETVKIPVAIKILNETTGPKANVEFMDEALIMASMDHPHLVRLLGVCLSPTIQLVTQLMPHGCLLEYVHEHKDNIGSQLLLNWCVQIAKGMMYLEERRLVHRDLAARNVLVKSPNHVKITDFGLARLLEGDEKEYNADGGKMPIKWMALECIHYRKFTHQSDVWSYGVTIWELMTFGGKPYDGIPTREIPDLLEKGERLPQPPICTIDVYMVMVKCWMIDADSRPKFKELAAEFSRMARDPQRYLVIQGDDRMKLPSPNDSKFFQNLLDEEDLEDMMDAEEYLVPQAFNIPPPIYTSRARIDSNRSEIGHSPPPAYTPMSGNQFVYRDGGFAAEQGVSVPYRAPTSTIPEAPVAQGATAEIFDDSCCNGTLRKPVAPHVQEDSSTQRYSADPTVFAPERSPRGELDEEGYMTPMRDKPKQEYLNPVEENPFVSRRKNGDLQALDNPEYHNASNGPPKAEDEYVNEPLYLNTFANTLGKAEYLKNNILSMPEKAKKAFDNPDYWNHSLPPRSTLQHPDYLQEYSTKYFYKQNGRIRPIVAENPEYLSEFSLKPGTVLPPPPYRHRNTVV
Series [9] addresses PIM1 (Serine/threonine-protein kinase pim-1) (Homo sapiens, UniProt P11309). Kind of series: Inhibition of human PIM1 at 1 uM measured after 30 mins by [gamma-33P]-ATP assay.
Series [10] addresses MEKK1 (Mitogen-activated protein kinase kinase kinase 1) (Homo sapiens, UniProt Q13233). Kind of series: Inhibition of human MEKK1 at 1 uM measured after 30 mins by [gamma-33P]-ATP assay.
Series [11] deals with JNK1 (Mitogen-activated protein kinase 8) (Homo sapiens, UniProt P45983). Kind of series: Inhibition of human JNK1 at 1 uM measured after 30 mins by [gamma-33P]-ATP assay.
Chain of JNK1 (Mitogen-activated protein kinase 8) (P45983 whole entry): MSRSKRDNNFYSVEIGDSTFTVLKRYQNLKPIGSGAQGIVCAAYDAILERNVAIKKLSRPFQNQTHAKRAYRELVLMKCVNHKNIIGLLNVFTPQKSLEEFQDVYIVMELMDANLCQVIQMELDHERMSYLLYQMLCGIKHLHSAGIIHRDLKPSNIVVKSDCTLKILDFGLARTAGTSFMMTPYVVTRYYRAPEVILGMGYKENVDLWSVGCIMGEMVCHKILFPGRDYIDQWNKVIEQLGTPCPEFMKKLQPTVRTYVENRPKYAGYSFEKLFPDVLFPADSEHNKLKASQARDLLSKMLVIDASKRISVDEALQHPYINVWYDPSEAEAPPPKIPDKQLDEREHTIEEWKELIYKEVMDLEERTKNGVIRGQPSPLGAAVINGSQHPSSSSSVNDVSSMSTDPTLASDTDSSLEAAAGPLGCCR
The nature of series [12]: Aqueous solubility of compound in PBS at pH 7.4 by HPLC-UV analysis. Format: physicochemical.
Series [13] addresses ERK1 (Mitogen-activated protein kinase 3) (Homo sapiens, UniProt P27361). The series can be described thus: Inhibition of human ERK1 at 1 uM measured after 30 mins by [gamma-33P]-ATP assay.

Chain of ERK1 (Mitogen-activated protein kinase 3) (P27361 whole entry): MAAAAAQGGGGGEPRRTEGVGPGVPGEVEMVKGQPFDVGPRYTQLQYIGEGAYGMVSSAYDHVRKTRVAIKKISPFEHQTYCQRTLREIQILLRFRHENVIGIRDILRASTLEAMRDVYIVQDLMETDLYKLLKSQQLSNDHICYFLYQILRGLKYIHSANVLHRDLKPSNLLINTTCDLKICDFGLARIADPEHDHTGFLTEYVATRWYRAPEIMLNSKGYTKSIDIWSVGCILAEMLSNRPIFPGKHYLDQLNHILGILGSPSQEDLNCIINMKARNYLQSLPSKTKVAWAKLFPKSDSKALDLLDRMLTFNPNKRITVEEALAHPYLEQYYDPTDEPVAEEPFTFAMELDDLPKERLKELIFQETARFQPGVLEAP
Chain of PIM1 (Serine/threonine-protein kinase pim-1) (P11309 whole entry): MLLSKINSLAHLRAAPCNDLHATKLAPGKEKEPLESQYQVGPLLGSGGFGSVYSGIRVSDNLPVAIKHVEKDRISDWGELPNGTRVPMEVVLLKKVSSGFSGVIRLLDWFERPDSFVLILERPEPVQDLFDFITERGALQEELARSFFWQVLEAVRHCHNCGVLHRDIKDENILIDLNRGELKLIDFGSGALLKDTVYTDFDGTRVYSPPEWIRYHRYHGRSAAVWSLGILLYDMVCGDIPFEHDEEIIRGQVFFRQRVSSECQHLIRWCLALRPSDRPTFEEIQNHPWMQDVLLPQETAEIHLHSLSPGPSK

As to `Cc1c2ccc(Nc3ccnc(Nc4ccc(S(N)(=O)=O)cc4)n3)cc2nn1C`, the half-maximal inhibitory concentration (IC50) in the series on HepG2 is above 25 µM; with Plasmodium falciparum, 13 µM. For the same compound, the selectivity ratio in series [1] is above 1.9.
Taken in the same sequence, the figures for `Cc1cnc(Nc2ccc(S(N)(=O)=O)cc2)nc1Nc1ccc2nc[nH]c2c1` were 18 µM, 3.2 µM and 5.6.
As for `c1cc(Nc2nccc(Nc3ccc4cn[nH]c4c3)n2)cc(N2CCOCC2)c1`, the results for the IC50 with HepG2 and with Plasmodium falciparum were 16 µM and 4.2 µM, respectively. Besides, the selectivity ratio in series [1] was determined as 3.8.
Taken in the same sequence, the figures for `NS(=O)(=O)c1cccc(Nc2nccc(Nc3ccc4nc[nH]c4c3)n2)c1` were above 25 µM, 4.2 µM and above 6.
For `Cc1ccc(Nc2nccc(Nc3ccc4cn[nH]c4c3)n2)cc1`, in that order: 18 µM, 2.5 µM and 7.2.
Taken in the same sequence, the figures for `Cc1c2ccc(Nc3ccnc(Nc4cccc(S(N)(=O)=O)c4)n3)cc2nn1C` were 19 µM, 10 µM and 1.9.
For the compound `CN1CCN(c2cccc(Nc3nccc(Nc4ccc5nc[nH]c5c4)n3)c2)CC1`, the IC50 in the series on HepG2 was 11 µM; in the series on Plasmodium falciparum, 0.87 µM. Further, in series [1], the selectivity ratio amounted to 13.
For the compound `CN1CCN(c2cccc(Nc3nccc(Nc4ccc5cn[nH]c5c4)n3)c2)CC1`, the IC50 was 6.7 µM in the series on HepG2 and 1.1 µM with Plasmodium falciparum. Moreover, in series [1], the selectivity ratio was 6.1.
Taken in the same sequence, the figures for `c1cc(Nc2nccc(Nc3ccc4nc[nH]c4c3)n2)cc(N2CCOCC2)c1` were 9.6 µM, 2.4 µM and 4.
Taken in the same sequence, the figures for `Cc1cccc(Nc2ncc(C)c(Nc3ccc4nc[nH]c4c3)n2)c1` were 6.6 µM, 0.77 µM and 8.6.
For `c1cc(Nc2ccc3nc[nH]c3c2)nc(Nc2ccc(N3CCOCC3)cc2)n1`, in that order: above 25 µM, 3.2 µM and above 7.8.
As for `CS(=O)(=O)Nc1cccc(Nc2nccc(Nc3ccc4nc[nH]c4c3)n2)c1`, the values for the IC50 in the series on HepG2 and in the series on Plasmodium falciparum were above 25 µM and 2.8 µM, respectively. For the same compound, in series [1], the selectivity ratio was above 8.9.
For `c1cc(Nc2ccc3cn[nH]c3c2)nc(Nc2ccc(N3CCOCC3)cc2)n1`, the IC50 in the series on HepG2 came to 8 µM; in the series with Plasmodium falciparum, 2.2 µM. The selectivity ratio in series [1] amounted to 3.6.
`Cc1cccc(Nc2ncc(Cl)c(Nc3ccc4nc[nH]c4c3)n2)c1`: the IC50 with HepG2 came out at 7.4 µM; in the series on Plasmodium falciparum it was 2 µM. Also, the selectivity ratio in series [1] came to 3.7.
For `NC(=O)c1ccc(Nc2nccc(Nc3ccc4cn[nH]c4c3)n2)cc1`, in that order: 16 µM, 5.4 µM and 3.
Take `CN1CCN(c2ccc(Nc3nccc(Nc4ccc5nc[nH]c5c4)n3)cc2)CC1`: the inhibition at 0.5 h, 1 µM in series [2] is 69.2%; in [3], 7.9%; against Aurora kinase A it was 20.6%; in [7], 85%; in series [8] it was 41.6%; in series [9], 89.3%. Moreover, the figures for the inhibition at 0.5 h, 1 µM in [10], in [11] and in series [13] were 47.9%, 75.9% and 91.3%, respectively. Besides, the results for the IC50 in the series with HepG2 and with Plasmodium falciparum were above 25 µM and 0.66 µM, respectively. Further, in [4], the CLH was determined as 0.8 mL/min/g. Further, the Papp at 5 h, 10 µM in series [5] came to 0.02 ×10⁻⁶ cm/s. In addition, the selectivity ratio in series [1] was above 38. The compound also displayed a logD at 6 h in series [6] of 2.3. In addition, in [12], the solubility turned out to be 124 µM (≈ 49.7 µg/mL).
Regarding `NS(=O)(=O)c1ccc(Nc2nccc(Nc3ccc4nc[nH]c4c3)n2)cc1`, the IC50 was above 25 µM in the series with HepG2 and 8.2 µM in the series with Plasmodium falciparum. In series [1], the selectivity ratio was above 3.
For `Cc1cccc(Nc2nccc(Nc3ccc4cn[nH]c4c3)n2)c1`, in that order: 15 µM, 3.6 µM and 4.2.
Consider `CN1CCN(c2ccc(Nc3nccc(Nc4ccc5cn[nH]c5c4)n3)cc2)CC1`, for which the results for the IC50 in the series on HepG2 and in the series on Plasmodium falciparum were 7 µM and 0.6 µM, respectively. Further, the selectivity ratio in series [1] came to 12.
For `Cc1cccc(Nc2nccc(Nc3ccc4nc[nH]c4c3)n2)c1`, in that order: 20 µM, 0.98 µM and 20.
Taken in the same sequence, the figures for `NS(=O)(=O)c1ccc(Nc2ncc(Cl)c(Nc3ccc4nc[nH]c4c3)n2)cc1` were 7.8 µM, 2.5 µM and 3.1.
For `O=C(O)c1ccc(Nc2nccc(Nc3ccc4nc[nH]c4c3)n2)cc1`, in that order: above 25 µM, 8.2 µM and above 3.
In the case of `Brc1ccc(Nc2nccc(Nc3ccc4cn[nH]c4c3)n2)cc1`, the IC50 in the series with HepG2 turned out to be 20 µM; in the series on Plasmodium falciparum it was 1.6 µM. Moreover, the selectivity ratio in series [1] worked out at 13.
Taken in the same sequence, the figures for `Brc1cccc(Nc2nccc(Nc3ccc4cn[nH]c4c3)n2)c1` were 17 µM, 2.6 µM and 6.5.
For `NS(=O)(=O)c1ccc(Nc2nccc(Nc3ccc4cn[nH]c4c3)n2)cc1`, in that order: 22 µM, 19 µM and 1.2.
For `Cc1ccc(Nc2nccc(Nc3ccc4nc[nH]c4c3)n2)cc1`, in that order: above 25 µM, 1.4 µM and above 18.
On to `O[C@@H](c1cc(C(F)(F)F)nc2c(C(F)(F)F)cccc12)[C@H]1CCCCN1` [(S,R)-MEFLOQUINE], for which the IC50 in the series on Plasmodium falciparum came to 0.014 µM.
Take `C[C@H]1[C@@H](O)O[C@@H]2O[C@@]3(C)CC[C@H]4[C@H](C)CC[C@@H]1[C@@]24OO3` [ARTENIMOL]: the IC50 in the series with Plasmodium falciparum was 0.031 µM.
The same measure, in the same setting: the same measure for `CCc1nc(N)nc(N)c1-c1ccc(Cl)cc1` [PYRIMETHAMINE]: 0.004 µM.
